Test results taken from ChEMBL document CHEMBL1201862, “PubChem BioAssay data set” (2004).
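96-well plates; 48 h exposure; 5 concentrations. Endpoints by linear interpolation between flanking doses. Not reached: highest tested concentration assigned. At the GI50, growth is halved.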 The source made the active and inactive calls. Cut-off read from the data, not from the text of the source: active = GI50 up to about 1.1 µM and inactive = higher.

What was measured:
Assay in all cases: DTP human tumour cell line panel, 48 h
[1] = test system: 786-0
[2] = test system: A498
[3] = test system: A549
[4] = test system: ACHN
[5] = test system: BT-549
[6] = test system: CAKI-1
[7] = test system: CCRF-CEM
[8] = test system: COLO 205
[9] = test system: DU-145
[10] = test system: EKVX
[11] = test system: HCC 2998
[12] = test system: HCT-116
[13] = test system: HCT-15
[14] = test system: HL-60
[15] = test system: HOP-62
[16] = test system: HOP-92
[17] = test system: HT-29
[18] = test system: Hs-578T
[19] = test system: IGROV-1
[20] = test system: K562
[21] = test system: KM12
[22] = test system: LOX IMVI
[23] = test system: M14
[24] = test system: MCF7
[25] = test system: MDA-MB-231
[26] = test system: MDA-MB-435
[27] = test system: MOLT-4
[28] = test system: NCI-H226
[29] = test system: NCI-H23
[30] = test system: NCI-H460
[31] = test system: NCI-H522
[32] = test system: NCI/ADR-RES
[33] = test system: OVCAR-3
[34] = test system: OVCAR-4
[35] = test system: OVCAR-5
[36] = test system: OVCAR-8
[37] = test system: PC-3
[38] = test system: RPMI-8226
[39] = test system: RXF 393
[40] = test system: SF-268
[41] = test system: SF-295
[42] = test system: SF-539
[43] = test system: SK-MEL-28
[44] = test system: SK-MEL-2
[45] = test system: SK-MEL-5
[46] = test system: SK-OV-3
[47] = test system: SN12C
[48] = test system: SNB-19
[49] = test system: SNB-75
[50] = test system: SR
[51] = test system: SW-620
[52] = test system: T47D
[53] = test system: TK-10
[54] = test system: U-251
[55] = test system: UACC-257
[56] = test system: UACC-62
[57] = test system: MDA-N
[58] = test system: Malme-3M

## C=C1C(=O)O[C@@H]2/C=C(/C)[C@@H](OC(C)=O)C/C=C(\C)C(O)[C@@H](OC(=O)/C(C)=C\C)C12 (some centres undefined)
[1]
  GI50: 15.1 µM (inactive)
[2]
  GI50: 51.3 µM (inactive)
[3]
  GI50: 95.7 µM (inactive)
[4]
  GI50: 18.7 µM (inactive)
[5]
  GI50: 20.1 µM (inactive)
[6]
  GI50: 24.2 µM (inactive)
[7]
  GI50: 9.53 µM (inactive)
[8]
  GI50: 18.1 µM (inactive)
[9]
  GI50: 43.7 µM (inactive)
[10]
  GI50: 32.1 µM (inactive)
[11]
  GI50: 24.6 µM (inactive)
[12]
  GI50: 16.3 µM (inactive)
[13]
  GI50: 16.5 µM
[14]
  GI50: 14.8 µM (inactive)
[15]
  GI50: > 100 µM (inactive)
[16]
  GI50: 22.1 µM (inactive)
[17]
  GI50: 20.6 µM (inactive)
[18]
  GI50: 56.2 µM (inactive)
[19]
  GI50: 50.7 µM (inactive)
[20]
  GI50: 22.6 µM (inactive)
[21]
  GI50: 68.7 µM (inactive)
[22]
  GI50: 14.6 µM (inactive)
[23]
  GI50: 33.1 µM (inactive)
[24]
  GI50: 27.6 µM (inactive)
[25]
  GI50: 19.1 µM (inactive)
[26]
  GI50: 20.4 µM (inactive)
[27]
  GI50: 21.1 µM (inactive)
[28]
  GI50: > 100 µM (inactive)
[29]
  GI50: 41.9 µM (inactive)
[30]
  GI50: 39 µM (inactive)
[31]
  GI50: 13.4 µM (inactive)
[32]
  GI50: 32.7 µM (inactive)
[33]
  GI50: 35.7 µM (inactive)
[34]
  GI50: 41.6 µM (inactive)
[35]
  GI50: 58.2 µM (inactive)
[36]
  GI50: 26.8 µM (inactive)
[37]
  GI50: 76.2 µM (inactive)
[38]
  GI50: 21.6 µM (inactive)
[39]
  GI50: 26.8 µM (inactive)
[40]
  GI50: 38.3 µM (inactive)
[41]
  GI50: > 100 µM (inactive)
[42]
  GI50: 34.4 µM (inactive)
[43]
  GI50: 18.2 µM (inactive)
[44]
  GI50: 27.6 µM (inactive)
[45]
  GI50: 15.8 µM (inactive)
[46]
  GI50: > 100 µM (inactive)
[47]
  GI50: 21 µM (inactive)
[48]
  GI50: > 100 µM (inactive)
[49]
  GI50: 79.8 µM (inactive)
[50]
  GI50: 17.3 µM (inactive)
[51]
  GI50: 16.5 µM (inactive)
[52]
  GI50: 19.6 µM (inactive)
[53]
  GI50: 68.7 µM (inactive)
[54]
  GI50: 41.1 µM (inactive)
[55]
  GI50: 37.2 µM (inactive)
[56]
  GI50: 26.4 µM (inactive)

## CC[C@@H](CCCC[C@@H]1CC[C@H]2CC(=O)C[C@@H]12)OC
[2]
  GI50: > 100 µM (inactive)
[3]
  GI50: > 100 µM (inactive)
[4]
  GI50: > 100 µM (inactive)
[5]
  GI50: 66.7 µM (inactive)
[6]
  GI50: > 100 µM (inactive)
[11]
  GI50: > 100 µM (inactive)
[13]
  GI50: > 100 µM
[14]
  GI50: 43.2 µM (inactive)
[15]
  GI50: > 100 µM (inactive)
[17]
  GI50: > 100 µM (inactive)
[18]
  GI50: > 100 µM (inactive)
[20]
  GI50: 30.8 µM (inactive)
[22]
  GI50: > 100 µM (inactive)
[26]
  GI50: > 100 µM (inactive)
[57]
  GI50: > 100 µM (inactive)
[58]
  GI50: > 100 µM (inactive)
[28]
  GI50: > 100 µM (inactive)
[29]
  GI50: > 100 µM (inactive)
[31]
  GI50: > 100 µM (inactive)
[32]
  GI50: 99.5 µM (inactive)
[34]
  GI50: > 100 µM (inactive)
[35]
  GI50: > 100 µM (inactive)
[38]
  GI50: > 100 µM (inactive)
[40]
  GI50: > 100 µM (inactive)
[41]
  GI50: > 100 µM (inactive)
[42]
  GI50: > 100 µM (inactive)
[43]
  GI50: > 100 µM (inactive)
[45]
  GI50: 85.1 µM (inactive)
[47]
  GI50: > 100 µM (inactive)
[49]
  GI50: > 100 µM (inactive)
[50]
  GI50: > 100 µM (inactive)
[51]
  GI50: > 100 µM (inactive)
[53]
  GI50: > 100 µM (inactive)
[55]
  GI50: 69.5 µM (inactive)

## CSC(SC)=C1C(=O)N(c2ccccc2)N=C1C
[1]
  GI50: 23.2 µM (inactive)
[2]
  GI50: 29.4 µM (inactive)
[3]
  GI50: 30.8 µM (inactive)
[4]
  GI50: 27.4 µM (inactive)
[5]
  GI50: 21.6 µM (inactive)
[6]
  GI50: 29 µM (inactive)
[7]
  GI50: 18.5 µM (inactive)
[8]
  GI50: 19.9 µM (inactive)
[10]
  GI50: 24 µM (inactive)
[11]
  GI50: 46.6 µM (inactive)
[12]
  GI50: 22.9 µM (inactive)
[13]
  GI50: 24.1 µM
[15]
  GI50: 35.4 µM (inactive)
[16]
  GI50: 2.75 µM (inactive)
[17]
  GI50: 35.8 µM (inactive)
[18]
  GI50: 88.1 µM (inactive)
[19]
  GI50: 29.3 µM (inactive)
[20]
  GI50: 27.1 µM (inactive)
[21]
  GI50: 41.1 µM (inactive)
[22]
  GI50: 34 µM (inactive)
[23]
  GI50: 20.6 µM (inactive)
[24]
  GI50: 17.3 µM (inactive)
[25]
  GI50: 33.8 µM (inactive)
[57]
  GI50: 34.8 µM (inactive)
[27]
  GI50: 21.7 µM (inactive)
[58]
  GI50: 21.7 µM (inactive)
[28]
  GI50: 30.3 µM (inactive)
[30]
  GI50: 23.9 µM (inactive)
[31]
  GI50: 17.5 µM (inactive)
[32]
  GI50: 31.2 µM (inactive)
[34]
  GI50: 34.3 µM (inactive)
[35]
  GI50: 29.5 µM (inactive)
[36]
  GI50: 33.8 µM (inactive)
[37]
  GI50: 28.1 µM (inactive)
[39]
  GI50: 25 µM (inactive)
[40]
  GI50: 61.1 µM (inactive)
[41]
  GI50: 25.9 µM (inactive)
[42]
  GI50: 36.7 µM (inactive)
[44]
  GI50: 20 µM (inactive)
[45]
  GI50: 10.3 µM (inactive)
[46]
  GI50: 29.2 µM (inactive)
[47]
  GI50: 30.7 µM (inactive)
[48]
  GI50: 30.9 µM (inactive)
[49]
  GI50: 21.2 µM (inactive)
[51]
  GI50: 32 µM (inactive)
[53]
  GI50: 22.1 µM (inactive)
[54]
  GI50: 35.1 µM (inactive)
[55]
  GI50: 27.4 µM (inactive)
[56]
  GI50: 27 µM (inactive)
